# According to publication PMC3171563 (2011):
# Tests used:
# [1] = target: acetylpolyamine amidohydrolase (APAH) (Mycoplana ramosa, UniProt Q48935); test: Fluor-de-Lys fluorescence deacetylase assay; format: biochemical
# [2] = target: T1, histone deacetylase 8 (HDAC8) (Homo sapiens, UniProt Q9BY41); test: Fluor-de-Lys fluorescence deacetylase assay; format: biochemical
# T1 sequence (Q9BY41 1-377): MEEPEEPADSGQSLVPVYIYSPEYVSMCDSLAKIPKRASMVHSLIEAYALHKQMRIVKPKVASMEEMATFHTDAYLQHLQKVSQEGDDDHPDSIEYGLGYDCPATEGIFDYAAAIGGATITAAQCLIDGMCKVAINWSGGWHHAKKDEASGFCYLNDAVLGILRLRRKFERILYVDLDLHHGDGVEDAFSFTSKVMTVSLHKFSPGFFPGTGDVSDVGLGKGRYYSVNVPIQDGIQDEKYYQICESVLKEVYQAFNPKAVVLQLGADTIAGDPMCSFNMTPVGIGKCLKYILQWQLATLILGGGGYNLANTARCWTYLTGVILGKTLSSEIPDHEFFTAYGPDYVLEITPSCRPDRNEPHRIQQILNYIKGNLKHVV
# acetylpolyamine amidohydrolase (APAH), sequence (Q48935 whole entry): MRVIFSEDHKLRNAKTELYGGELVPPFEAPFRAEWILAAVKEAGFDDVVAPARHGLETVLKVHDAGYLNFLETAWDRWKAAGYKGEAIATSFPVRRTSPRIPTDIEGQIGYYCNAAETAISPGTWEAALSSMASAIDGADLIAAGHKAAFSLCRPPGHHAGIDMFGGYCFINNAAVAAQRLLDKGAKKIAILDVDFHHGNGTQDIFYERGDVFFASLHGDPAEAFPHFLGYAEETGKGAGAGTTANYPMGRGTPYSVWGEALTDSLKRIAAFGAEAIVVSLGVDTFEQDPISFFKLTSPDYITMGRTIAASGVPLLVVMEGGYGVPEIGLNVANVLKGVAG
structure (smiles),measurement,setting,value
"N[C@@H](CCCCC(=O)C(F)(F)F)C(=O)O [compound 10, (S)-2-amino-8,8,8-trifluoro-7-oxo-octanoic acid]",IC50,[1],110 ± 30 µM
same,IC50,[2],1.5 ± 0.2 µM
